In paper PMC10584170, “Machine learning-based phenotypic imaging to characterise the targetable biology of Plasmodium falciparum male gametocytes for the development of transmission-blocking antimalarials” (PLOS Pathogens, 2023):
Like-named read-outs stand apart in the source and are kept apart here.

Key:
[1] = system: P. falciparum male gametocytes; assay: P. falciparum Dual Gamete Formation Assay (PfDGFA), male readout (exflagellation); format: cell-based, Plasmodium falciparum NF54; conditions: for Selectivity Ratio M: HepG2 Tox50 versus male IC50
Outline: (§1)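 Male and female gamete formation were quantified by microscopy image analysis following 24 h incubation of mature NF54 gametocytes with compound and activation at 28°C with xanthurenic acid.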

[2] = system: P. falciparum female gametocytes; assay: P. falciparum Dual Gamete Formation Assay (PfDGFA), female readout (Pfs25-positive female gametes); format: cell-based, Plasmodium falciparum NF54; conditions: for Selectivity ratio F: HepG2 Tox50 versus female IC50
Outline: as §1

[3] = system: P. falciparum female gametocytes; assay: P. falciparum Female Gametocyte Activation Assay (PfFGAA); format: cell-based, Plasmodium falciparum
[4] = system: P. falciparum gametocytes; assay: P. falciparum Gametocyte Viability ATP Assay (PfGCT); format: cell-based, Plasmodium falciparum
Description: (§2) Fig 1 The activity of TCAMS compound identified in the Pf DGFA screen. (A) 85 molecules were confirmed active in the Pf DGFA. 58 were previously identified in one or more transmission-blocking screens. […] No molecule was identified with >4.7-fold greater activity against female gametocytes. Abbreviations (IC50 = concentration giving 50% inhibition, PbODA = P. berghei Ookinete Development Assay, PfDGFA = P. falciparum Dual Gamete Formation Assay, PfFGAA = P. falciparum Female Gametocyte Activation Assay, PfGCT = P. falciparum Gametocyte Viability ATP Assay).

[5] = system: P. falciparum female gametocytes; parameters: method as in Miguel-Blanco et al 2017; conditions: ref Miguel-Blanco et al 2017; read-out: Pf female gametogenesis FGAA IC50; cited from earlier work
[6] = system: P. falciparum gametocytes; parameters: method as in Almela et al 2015; conditions: ref Almela et al 2015; read-out: Pf Gametocyte viability (ATP) GC-ATP IC50; cited from earlier work
HepG2 cells [7] = conditions: cited from earlier work
HepG2 cells [8] = assay: HepG2 cytotoxicity counter-screen; conditions: for Tox50: cytotoxic activity against HepG2 cells; for Mean TOX: mean of the HepG2 TOX50 values
[9] = system: P. berghei ookinete development; assay: P. berghei Ookinete Development Assay (PbODA); format: cell-based, Plasmodium berghei; conditions: Mean TOX HepG2 over Pb ODA value; GREEN = >10-fold; RED = <10-fold
Description: as §2

[10] = Mean TOX HepG2 over DGFA IC50 MALE, GREEN = >10-fold, RED = <10-fold
[11] = Plasmodium falciparum, PfDGFA, 24 h incubation with gametocytes before induction, exflagellation readout, read-out: Male IC50
[12] = Mean TOX HepG2 over DGFA IC50 FEM, GREEN = >10-fold, RED = <10-fold
[13] = Plasmodium falciparum, PfDGFA, 24 h incubation with gametocytes before induction, female gamete readout, read-out: Female IC50
[14] = HepG2 value reported with the FGAA screen, ref Miguel-Blanco et al 2017
[15] = HepG2 value reported with the GC-ATP screen, ref Almela et al 2015
[16] = this study, read-out: Pf DGFA IC50 MALE
[17] = this study, read-out: Pf DGFA IC50 FEM
[18] = Mean TOX HepG2 over FGAA IC50, GREEN = >10-fold, RED = <10-fold
[19] = Mean TOX HepG2 over GC-ATP IC50, GREEN = >10-fold, RED = <10-fold
[20] = Plasmodium falciparum, 2µM, 24h preincubation with gametocytes, average of replicates, read-out: Average inhibition male (%)
[21] = Plasmodium falciparum, 2µM, 24h preincubation with gametocytes, replicate R1, read-out: % inhibition male (individual replicates) R1
[22] = Plasmodium falciparum, 2µM, 24h preincubation with gametocytes, replicate R2, read-out: % inhibition male (individual replicates) R2
[23] = Plasmodium falciparum, 2µM, 24h preincubation with gametocytes, replicate R3, read-out: % inhibition male (individual replicates) R3
[24] = Plasmodium falciparum, 2µM, 24h preincubation with gametocytes, replicate R4, read-out: % inhibition male (individual replicates) R4
[25] = Plasmodium falciparum, 2µM, 24h preincubation with gametocytes, average of replicates, read-out: Average inhibition female (%)
[26] = Plasmodium falciparum, 2µM, 24h preincubation with gametocytes, replicate R1, read-out: % inhibition female (individual replicates) R1
[27] = Plasmodium falciparum, 2µM, 24h preincubation with gametocytes, replicate R2, read-out: % inhibition female (individual replicates) R2
[28] = Plasmodium falciparum, 2µM, 24h preincubation with gametocytes, replicate R3, read-out: % inhibition female (individual replicates) R3
[29] = Plasmodium falciparum, 2µM, 24h preincubation with gametocytes, replicate R4, read-out: % inhibition female (individual replicates) R4

Structure (SMILES) | Selectivity Ratio M [1] | Cytotox ratio Pf Male [1, 10] | IC50 [1, 11] | Selectivity ratio F [2] | Cytotox ratio Pf Female [2, 12] | IC50 [2, 13] | Cytotox ratio Pf FGAA ([3]; human) | Cytotox ratio Pf GC-ATP ([4]; human) | IC50 [5] | IC50 [6] | FGAA TOX50 HepG2 (HepG2 cells [7]; [14]) | Mean TOX (HepG2 cells [8]) | Cytotox ratio Pf Male [1] | IC50 [1, 16] | Cytotox ratio Pf Female [2] | IC50 [2, 17] | Cytotox ratio Pf FGAA [3, 18] | Cytotox ratio Pf GC-ATP [4, 19] | FGAA TOX50 HepG2 (HepG2 cells [7]) | GC-ATP TOX50 HepG2 (HepG2 cells [7]) | further results
COc1cc2nc(N3CCN(c4nc(N)c5cc(OC)c(OC)cc5n4)CC3)nc(N)c2cc1OC [TCMDC-123865] | 28.11 | 26.9 | 1.47 µM | 20.76 | 19.9 | 1.99 µM | 68.3 | 152.3 | 0.58 µM | 0.26 µM | 52.49 µM | 39.61 µM |  |  |  |  |  |  |  |  | HitlevelM ([1]; 2µM, 24h preincubation, number of replicates with >50% inhibition in the male readout): 3; inhibition at 2 µM ([1]; Plasmodium falciparum, 2µM, 24h preincubation with gametocytes prior to induction of gametogenesis, average of replicates, read-out: Average inhibition male (%)): 50.1%; inhibition at 2 µM ([1]; Plasmodium falciparum, 2µM, 24h preincubation with gametocytes prior to induction of gametogenesis, replicate R1, read-out: % inhibition male (individual replicates) R1): 50.8%; inhibition at 2 µM ([1]; Plasmodium falciparum, 2µM, 24h preincubation with gametocytes prior to induction of gametogenesis, replicate R2, read-out: % inhibition male (individual replicates) R2): 50.6%; inhibition at 2 µM ([1]; Plasmodium falciparum, 2µM, 24h preincubation with gametocytes prior to induction of gametogenesis, replicate R3, read-out: % inhibition male (individual replicates) R3): 23.6%; inhibition at 2 µM ([1]; Plasmodium falciparum, 2µM, 24h preincubation with gametocytes prior to induction of gametogenesis, replicate R4, read-out: % inhibition male (individual replicates) R4): 75.6%; HitlevelF ([2]; 2µM, 24h preincubation, number of replicates with >50% inhibition in the female readout): 0; inhibition at 2 µM ([2]; Plasmodium falciparum, 2µM, 24h preincubation with gametocytes prior to induction of gametogenesis, average of replicates, read-out: Average inhibition female (%)): 2.6%; inhibition at 2 µM ([2]; Plasmodium falciparum, 2µM, 24h preincubation with gametocytes prior to induction of gametogenesis, replicate R1, read-out: % inhibition female (individual replicates) R1): 18.2%; inhibition at 2 µM ([2]; Plasmodium falciparum, 2µM, 24h preincubation with gametocytes prior to induction of gametogenesis, replicate R2, read-out: % inhibition female (individual replicates) R2): 4%; inhibition at 2 µM ([2]; Plasmodium falciparum, 2µM, 24h preincubation with gametocytes prior to induction of gametogenesis, replicate R3, read-out: % inhibition female (individual replicates) R3): -8.7%; inhibition at 2 µM ([2]; Plasmodium falciparum, 2µM, 24h preincubation with gametocytes prior to induction of gametogenesis, replicate R4, read-out: % inhibition female (individual replicates) R4): -3.2%; GC-ATP TOX50 HepG2 (HepG2 cells [7]; [15]): 25 µM; Tox50 (HepG2 cells [8]): 41.34 µM
[O-][s+]1c(Cl)c(-c2ccc(Cl)cc2)c2ccc(Cl)cc21 (stereo not drawn) [TC66] |  |  |  |  |  |  |  |  | 0.04 µM | 0.02 µM |  | 13.92 µM | 99.4 | 0.14 µM | 99.4 | 0.14 µM | 347.9 | 695.8 | 11.35 µM | 12.8 µM | 
CN(C)CCNCc1cccc(-c2ccc3c(Nc4ccc(Oc5ccccn5)cc4)ccnc3c2)c1 [TCMDC-138493] | 14.59 | 8.5 | 0.78 µM | 2.14 | 1.2 | 5.32 µM | 4.9 | 20.4 | 0.82 µM | 0.22 µM | 3.98 µM | 6.62 µM |  |  |  |  |  |  |  |  | inhibition at 2 µM [1, 20]: 96.2%; inhibition at 2 µM [1, 21]: 93.5%; inhibition at 2 µM [1, 22]: 99.2%; inhibition at 2 µM [1, 23]: 91.9%; inhibition at 2 µM [1, 24]: 100%; inhibition at 2 µM [2, 25]: 65.4%; inhibition at 2 µM [2, 26]: 58.7%; inhibition at 2 µM [2, 27]: 66.3%; inhibition at 2 µM [2, 28]: 72.6%; inhibition at 2 µM [2, 29]: 64.1%; GC-ATP TOX50 HepG2 (HepG2 cells [7]; [15]): 4.49 µM; Tox50 (HepG2 cells [8]): 11.38 µM
Br.c1cc(Nc2nc(-c3ccc(-c4csc(Nc5ccncc5)n4)cc3)cs2)ccn1 [TC35] |  |  |  |  |  |  |  |  | 0.03 µM | 0.26 µM |  | 8.03 µM | 26.8 | 0.3 µM | 26.8 | 0.3 µM | 267.7 | 30.9 | 2.26 µM | 17.3 µM | 
O=c1c(Br)ccccc1Br [TC48] |  |  |  |  |  |  |  |  |  | 0.21 µM |  | 11.45 µM | 76.3 | 0.15 µM | 104.1 | 0.11 µM |  | 54.5 |  | 12.6 µM | Cytotox ratio Pb Ookinete [9]: 10834.6; ODA TOX50 HepG2 (HepG2 cells [7]): 14.791 µM
CN1CCN(CCCNCc2cccc(-c3ccc(CNCCc4ccccc4)cc3)c2)CC1.O=C(O)C(F)(F)F [TCMDC-140643] | 18.8 | 18.9 | 0.69 µM | 1.63 | 1.6 | 7.98 µM | 6.8 | 31.9 | 1.91 µM | 0.41 µM | 7.92 µM | 13.07 µM |  |  |  |  |  |  |  |  | inhibition at 2 µM [1, 20]: 91.2%; inhibition at 2 µM [1, 21]: 95%; inhibition at 2 µM [1, 22]: 75.6%; inhibition at 2 µM [1, 23]: 95.7%; inhibition at 2 µM [1, 24]: 98.5%; inhibition at 2 µM [2, 25]: 34.1%; inhibition at 2 µM [2, 26]: 40.2%; inhibition at 2 µM [2, 27]: 30.4%; inhibition at 2 µM [2, 28]: 25.8%; inhibition at 2 µM [2, 29]: 40%; GC-ATP TOX50 HepG2 (HepG2 cells [7]; [15]): 18.24 µM; Tox50 (HepG2 cells [8]): 13.04 µM
O=C(O)CCSSc1cccc[n+]1[O-] [TC78] |  |  |  |  |  |  |  |  | 0.04 µM | 0.27 µM |  | 22.16 µM | 92.3 | 0.24 µM | 85.2 | 0.26 µM | 554.1 | 82.1 | 19.05 µM | 7.8 µM | Cytotox ratio Pb Ookinete [9]: 13258.7; ODA TOX50 HepG2 (HepG2 cells [7]): 30.903 µM
c1ccc2sc(Sc3ncnc4sccc34)nc2c1 [TC45] |  |  |  |  |  |  |  |  | 0.14 µM | 0.5 µM |  | 75.00 µM | 250.0 | 0.3 µM | 258.6 | 0.29 µM | 535.7 | 150.0 | 100 µM | 25 µM | DGFA Tox50 HepG2 (HepG2 cells [8]; HepG2 value reported with the DGFA screen): 100 µM
Cc1sc2ncnc(Sc3nnc(N)s3)c2c1C [TC60] |  |  |  |  |  |  |  |  | 0.77 µM | 0.3 µM |  | 42.45 µM | 30.1 | 1.41 µM | 57.4 | 0.74 µM | 55.1 | 141.5 | 36.31 µM | 25 µM | 
C=CCN(C(=O)c1ccc(Cl)c([N+](=O)[O-])c1)c1nc(-c2ccccc2)cs1 [TC38] |  |  |  |  |  |  |  |  | 0.13 µM | 0.11 µM |  | 50.86 µM | 127.1 | 0.4 µM | 164.1 | 0.31 µM | 391.2 | 462.3 | 100 µM | 25 µM | 
